System: SNU761 cells expressing HA-TM4SF5 and FLAG-SLAMF7
Test: Immunofluorescence microscopy of SLAMF7 localization (Pearson's correlation)
Format: cell-based, human
Settings: 2.5 µM, 24 h, vs DMSO (FIG. 15g-h)
Method: After putting a cover glass into each well of a 12-well plate, 10 µg/ml fibronectin (35600, BD Biosciences) diluted in PBS was added thereto and left at room temperature for 1 hour for coating. After washing three times with PBS, 20,000 cells were seeded on each cover glass and cultured in a cell incubator at 37°C for 16 hours. After cultivation, the various expression vectors mentioned above were transfected using Lipofectamine 3000 (L3000015, Invitrogen) and cultured for 24 hours, and then isoxazole was treated or not treated for 24 hours. The cells were fixed with cold 99% methanol at room temperature for 15 minutes and then blocked with 1% BSA in PBS for 1 hour. Primary antibodies, anti-FLAG (NB600-344, Novus Biologicals), anti-LAMP1 (#9091, Cell Signaling Tech,), anti-ZO-1 (402200, Invitrogen), anti-HA (901515, BioLegend), and anti-SLAMF7 (sc-390840, Santa Cruz Biotech.), were diluted in 1% BSA in PBS at a ratio of 1:500 and reacted at 4°C for 16 hours. The next day, the cover glasses were washed three times with PBS, and then fluorescence-conjugated secondary antibodies (Alexa Fluor 488 [goat: A11055 and mouse: A21202] and 555 [goat: A21432 and mouse: A31570] from Invitrogen) were diluted in 1% BSA in PBS at a ratio of 1:500 and reacted at room temperature for 1 hour. After washing three times with PBS, mounting was performed using ProLong™ Gold Antifade (P36930, Invitrogen). Cells were randomly photographed using a Nikon Eclipse Ti microscope with a C2 confocal system, and then the images were analyzed using NIS-Elements software (Nikon, Melville, NY, USA), and colocalization of SLAMF7 with LAMP1 or ZO-1 was calculated using Pearson's correlation coefficients. All images were photographed under the same software settings and equally corrected with Adobe Photoshop. Each dot in the graphs represents a result measured from a single cell.
SNU449-TM4SF5 cells overexpressing TM4SF5 were seeded on cover glasses pre-coated with collagen Type I (10 µg/ml), and 15 hour later, PD-L1-HA cDNA was transfected using Lipofectamine 3000 (Thermo Fisher). […] After reacting again with secondary antibodies at room temperature for 30 minutes (TRITC fluorescence for LAMP1, TRITC or Alexa Fluor® 488 fluorescence for TM4SF5, and FITC fluorescence for PD-L1 or SLAMF7), the expression levels, localizations, and colocalizations (indicated in yellow) of the fluorescently-stained factors were observed using a confocal fluorescence microscope.
(a) SNU761 cells expressing HA-EV or HA-TM4SF5 and FLAG-SLAMF7 were stored at 4°C and then cultured at 37°C for the given periods. […] The colocalization coefficient was calculated by Pearson's correlation (b). […]

Row | SMILES | SLAMF7 colocalized at the lysosomal membrane | SLAMF7 expression/localization at the plasma membrane (PM)
1 | CC(=O)Nc1ccc(-c2cc(-c3ccc(O)cc3)no2)cc1 [ST-5-001, N-(4-(3-(4-hydroxyphenyl)isoxazole-5-yl)phenyl)acetamide] | decreased | rather increased
2 | Cc1ccc(C(=O)Nc2ccc(-c3cc(-c4ccc(O)cc4)no3)cc2)cc1 [ST-5-002, N-(4-(3-(4-hydroxyphenyl)isoxazole-5-yl)phenyl)-4-methylbenzamide] | decreased | rather increased

From patent EP4772500A1, “NOVEL ISOXAZOLE COMPOUND AS TM4SF5-SPECIFIC INHIBITOR AND USE THEREOF” (Seoul National University R&DB Foundation, priority 2023, dated 2025)
